The text below walks through data of article PMC3010111 (Molecular Systems Biology, 2010).

The assay concerns the target T1, AroB (dehydroquinate synthase) (Escherichia coli, UniProt P07639).
T1 sequence (P07639 1-362): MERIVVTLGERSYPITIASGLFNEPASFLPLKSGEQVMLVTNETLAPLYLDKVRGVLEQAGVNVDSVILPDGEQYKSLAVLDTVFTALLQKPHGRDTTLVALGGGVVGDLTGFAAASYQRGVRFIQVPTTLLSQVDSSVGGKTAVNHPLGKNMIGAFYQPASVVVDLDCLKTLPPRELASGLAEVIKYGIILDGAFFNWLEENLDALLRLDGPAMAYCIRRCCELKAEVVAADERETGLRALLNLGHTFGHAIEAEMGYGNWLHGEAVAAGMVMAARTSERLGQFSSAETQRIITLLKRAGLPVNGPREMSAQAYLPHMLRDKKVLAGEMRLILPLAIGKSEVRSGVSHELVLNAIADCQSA
Nature of the assay: NAD+ reduction. It is filed as biochemical. The following applies: 2 mM NAD+, 100 mM Tris–HCl pH 7.5, 10°C; 11 μM AroB.

As for `O=C(O)[C@H](O)[C@H](O)COP(=O)(O)O` [4PE], the “NAD+ reduction; single turnover (data not shown)” value is given as “AroB also oxidizes 4PE, but carries out only a single turnover (data not shown)”.
